Values after ≈ are worked out from the molar mass of the structure shown.
What was measured:
Format in all cases: functional
Bacillus pumilus = assay: Antibacterial activity against penicillin-susceptible Bacillus pumilus CMCC63202 assessed as bacterial growth inhibition incubated for 20 hrs by CLSI based broth microdilution method
Enterococcus faecium [1] = assay: Antibacterial activity against vancomycin-susceptible Enterococcus faecium ATCC19434 assessed as bacterial growth inhibition incubated for 20 hrs by CLSI based broth microdilution method
Staphylococcus aureus [2] = assay: Antibacterial activity against Staphylococcus aureus clinical isolate assessed as bacterial growth inhibition incubated for 20 hrs by CLSI based broth microdilution method
Staphylococcus aureus [3] = assay: Antibacterial activity against methicillin-resistant Staphylococcus aureus ATCC43300 assessed as bacterial growth inhibition incubated for 20 hrs by CLSI based broth microdilution method
Escherichia coli [4] = assay: Antibacterial activity against penicillin-susceptible Escherichia coli ATCC25922 assessed as bacterial growth inhibition incubated for 20 hrs by CLSI based broth microdilution method
Acinetobacter baumannii = assay: Antibacterial activity against Acinetobacter baumannii ATCC19606 assessed as bacterial growth inhibition incubated for 20 hrs by CLSI based broth microdilution method
Enterococcus faecalis [5] = assay: Antibacterial activity against vancomycin-resistant Enterococcus faecalis ATCC51299 assessed as bacterial growth inhibition incubated for 20 hrs by CLSI based broth microdilution method
Bacillus subtilis = assay: Antibacterial activity against penicillin-susceptible Bacillus subtilis ATCC9372 assessed as bacterial growth inhibition incubated for 20 hrs by CLSI based broth microdilution method
Staphylococcus aureus [6] = assay: Antibacterial activity against penicillin-resistant Staphylococcus aureus ATCC31007 assessed as bacterial growth inhibition incubated for 20 hrs by CLSI based broth microdilution method
Streptococcus pyogenes [7] = assay: Antibacterial activity against erythromycin-resistant Streptococcus pyogenes 2 clinical isolate assessed as bacterial growth inhibition incubated for 20 hrs by CLSI based broth microdilution method
Streptococcus pyogenes [8] = assay: Antibacterial activity against erythromycin-susceptible Streptococcus pyogenes 1 assessed as bacterial growth inhibition incubated for 20 hrs by CLSI based broth microdilution method
Enterococcus faecium [9] = assay: Antibacterial activity against vancomycin-resistant Enterococcus faecium ATCC51559 assessed as bacterial growth inhibition incubated for 20 hrs by CLSI based broth microdilution method
Enterococcus faecalis [10] = assay: Antibacterial activity against vancomycin-susceptible Enterococcus faecalis ATCC29212 assessed as bacterial growth inhibition incubated for 20 hrs by CLSI based broth microdilution method
Klebsiella pneumoniae = assay: Antibacterial activity against Klebsiella pneumoniae ATCC BAA-1902 assessed as bacterial growth inhibition incubated for 20 hrs by CLSI based broth microdilution method
Escherichia coli [11] = assay: Antibacterial activity against wild-type Escherichia coli BW25113 assessed as bacterial growth inhibition incubated for 20 hrs by CLSI based broth microdilution method
Staphylococcus aureus [12] = assay: Antibacterial activity against erythromycin-susceptible Staphylococcus aureus ATCC25923 assessed as bacterial growth inhibition incubated for 20 hrs by CLSI based broth microdilution method
[13] = system: Staphylococcus epidermidis; assay: Antibacterial activity against penicillin-resistant Staphylococcus epidermidis clinical isolate assessed as bacterial growth inhibition incubated for 20 hrs by CLSI based broth microdilution method

SMILES | MIC (Bacillus pumilus) [µg/mL] | MIC (Enterococcus faecium [1]) [µg/mL] | MIC (Staphylococcus aureus [2]) [µg/mL] | MIC (Staphylococcus aureus [3]) [µg/mL] | MIC (Escherichia coli [4]) [µg/mL] | MIC (Acinetobacter baumannii) [µg/mL] | MIC (Enterococcus faecalis [5]) [µg/mL] | MIC (Bacillus subtilis) [µg/mL] | MIC (Staphylococcus aureus [6]) [µg/mL] | MIC (Streptococcus pyogenes [7]) [µg/mL] | MIC (Streptococcus pyogenes [8]) [µg/mL] | MIC (Enterococcus faecium [9]) [µg/mL] | MIC (Enterococcus faecalis [10]) [µg/mL] | MIC (Klebsiella pneumoniae) [µg/mL] | MIC (Escherichia coli [11]) [µg/mL] | MIC (Staphylococcus aureus [12]) [µg/mL] | MIC [13] [µg/mL]
C[n+]1cc(-c2ccccc2)c(/C=C/c2ccc(Cl)c(Cl)c2)cc1-c1ccc(C(C)(C)C)cc1.[I-] | 2 | 1 | 1 | 1 | > 64 | 4 | 2 | 2 | 2 | 4 | 8 | 1 | 2 | > 64 | 8 | 2 | 2
CC(C)c1ccc(/C=C/c2cc(-c3ccccc3)c[n+](C)c2-c2ccccc2)cc1.[I-] | 2 | 4 | 0.5 | 2 | 16 | 8 | 4 | 1 | 4 | 2 | 2 | 4 | 4 | 32 | 32 | 0.5 | 4
C[n+]1cc(-c2ccccc2)cc(/C=C/c2ccc(C(C)(C)C)cc2)c1-c1ccccc1.[I-] | 2 | 2 | 2 | 1 | 16 | 4 | 1 | 0.5 | 4 | 2 | 8 | 2 | 4 | 32 | 16 | 0.25 | 2
Cc1ccc(/C=C/c2cc(-c3ccc(C(C)(C)C)cc3)[n+](C)cc2-c2ccccc2C)cc1.[I-] | 1 | 2 | 0.5 | 0.5 | 8 | 4 | 2 | 0.5 | 2 | 4 | 2 | 2 | 4 | 8 | 8 | 1 | 2
Cc1ccc(/C=C/c2cc(-c3ccccc3)c[n+](C)c2-c2ccccc2)cc1.[I-] | 16 | 32 | 2 | 4 | > 64 | 32 | 32 | 2 | 32 | 4 | 4 | 16 | 16 | > 64 | > 64 | 1 | 32
C=CC1=C(C(=O)O)N2C(=O)[C@@H](NC(=O)/C(=N\OCC(=O)O)c3csc(N)n3)[C@H]2SC1 [CEFIXIME] | > 64 | > 64 | 8 (≈ 17.6 µM) | 4 (≈ 8.82 µM) | < 0.062 | 32 (≈ 70.6 µM) | > 64 | 2 (≈ 4.41 µM) | > 64 | < 0.062 | < 0.062 | > 64 | > 64 | > 64 | < 0.062 | 1 (≈ 2.21 µM) | > 64
C[n+]1cc(-c2ccccc2)cc(/C=C/c2ccc(Cl)c(Cl)c2)c1-c1ccccc1.[I-] | 4 | 8 | 2 | 2 | 64 | 2 | 8 | 0.5 | 8 | 2 | 2 | 8 | 8 | > 64 | 64 | 0.5 | 8
C[n+]1cc(-c2ccccc2)cc(/C=C/c2ccc(F)cc2)c1-c1ccccc1.[I-] | 32 | 64 | 8 | 8 | > 64 | 32 | > 64 | 8 | 64 | 8 | 8 | 64 | 64 | > 64 | > 64 | 2 | 64
CCCOc1ccc(/C=C/c2cc(-c3ccc(C(C)(C)C)cc3)[n+](C)cc2-c2ccccc2)cc1.[I-] | 1 | 1 | 0.5 | 0.5 | 4 | 2 | 1 | 0.125 | 1 | 2 | 2 | 1 | 2 | 8 | 8 | 0.125 | 1
COc1cc(/C=C/c2cc(-c3ccccc3)c[n+](C)c2-c2ccccc2)cc(OC)c1OC.[I-] | 64 | > 64 | 16 | 64 | > 64 | > 64 | > 64 | 16 | > 64 | 16 | 16 | > 64 | > 64 | > 64 | > 64 | > 64 | > 64
C[n+]1cc(-c2ccccc2)cc(/C=C/c2ccc(Br)cc2)c1-c1ccccc1.[I-] | 8 | 16 | 2 | 4 | 64 | 8 | 16 | 2 | 16 | 4 | 4 | 16 | 16 | 64 | > 64 | 1 | 8
CC1(C)S[C@@H]2[C@H](NC(=O)[C@H](NC(=O)N3CCN(S(C)(=O)=O)C3=O)c3ccccc3)C(=O)N2[C@H]1C(=O)O [MEZLOCILLIN] | 2 (≈ 3.71 µM) | 16 (≈ 29.7 µM) | 32 (≈ 59.3 µM) | 16 (≈ 29.7 µM) | 1 (≈ 1.85 µM) | 64 (≈ 119 µM) | > 64 | 4 (≈ 7.41 µM) | > 64 | < 0.062 | < 0.062 | > 64 | 2 (≈ 3.71 µM) | > 64 | 1 (≈ 1.85 µM) | 1 (≈ 1.85 µM) | > 64
C[n+]1cc(-c2ccccc2)c(/C=C/c2ccc(F)cc2)cc1-c1ccccc1.[I-] | 2 | 4 | 1 | 1 | 8 | 8 | 2 | 0.5 | 4 | 2 | 2 | 8 | 4 | 32 | 8 | 0.125 | 2
CCCCCOc1ccc(/C=C/c2cc(-c3ccccc3)[n+](C)cc2-c2ccccc2)cc1.[I-] | 0.5 | 0.5 | 0.5 | 1 | 4 | 2 | 1 | 0.5 | 1 | 2 | 2 | 1 | 2 | 4 | 2 | 0.5 | 1
CCCCCCCOc1ccc(/C=C/c2cc(-c3ccccc3)c[n+](C)c2-c2ccccc2)cc1.[I-] | 1 | 2 | 8 | 8 | 8 | 2 | > 64 | 1 | 64 | 8 | 4 | 64 | 4 | 8 | 8 | 0.25 | 64
C[n+]1cc(-c2ccccc2)c(/C=C/c2ccc(N)cc2)cc1-c1ccc(C(C)(C)C)cc1.[I-] | 2 | 4 | 0.25 | 0.5 | 16 | 4 | 4 | 0.5 | 2 | 2 | 4 | 4 | 4 | 16 | 32 | 0.125 | 4
C[n+]1cc(-c2ccccc2)cc(/C=C/c2ccc(C(F)(F)F)cc2)c1-c1ccccc1.[I-] | 8 | 16 | 2 | 4 | > 64 | 16 | 16 | 2 | 16 | 2 | 4 | 8 | 8 | > 64 | > 64 | 1 | 8

Source: ChEMBL document CHEMBL5537115, “New broad-spectrum and potent antibacterial agents with dual-targeting mechanism: Promoting FtsZ polymerization and disrupting bacterial membranes” (Eur J Med Chem, 2024)
